Measurements reported in patent publication US7265139B2, “RXR activating molecules” (Incyte San Diego Inc., priority 2001, dated 2007).

Tests used:
BALB/c mice = assay: Effect on serum triglyceride levels in wild type BALB/c mice; format: in vivo, mouse; conditions: FIG. 13, p≦0.01
Experimental: The animals were treated with a single daily oral dose of the test compound suspended in sesame oil (dose volume of 5 ml/kg). […], Animas treated with 10 and 30 mg/kg of Compound 1, which are doses that are 30 and 100 times the efficacious does in diabetic db/db mice, respectively, caused no increase in serum triglyceride levels compared to vehicle treated control animals.
Test compounds are tested in wild type mice at 10-100 times the efficacious dose in diabetic mice. Typically, adult male BALB/c mice are housed in a fixed 12—12-hr artificial light-dark cycle, and maintained on a standard rodent diet. The animals are treated with a single daily oral dose of the test compound suspended in sesame oil (dose volume of 5 ml/kg) as also described in the examples. Approximately two weeks later the animals are bled from the tail vein, then necropsied following sacrifice by carbon dioxide asphyxiation. Several serum biochemical parameters are measured. Of special significance is the effect the selected compounds have on serum triglyceride levels compared to vehicle treated control animals.
For these studies, adult male BALB/c mice were housed in a fixed 12—12-hr artificial light-dark cycle, and maintained on a standard rodent diet. The animals were treated with a single daily oral dose of the test compound suspended in sesame oil (dose volume of 5 ml/kg).

KKA^y mice = assay: Antidiabetic activity in type 2 diabetic KKA^y mice; format: in vivo, mouse
Experimental: Prior to commencing treatment, all of the animals are bled from the tail vein and serum levels of glucose and triglyceride are measured in duplicate. The animals are then sorted into different treatment groups with equal average triglyceride levels. The animals are treated with a single daily oral dose of the test compound suspended in sesame oil (dose volume of 3 ml/kg).
In short, adult diabetic KKA^y mice are housed in a fixed 12—12-hr artificial light-dark cycle, and maintained on a standard rodent diet. Prior to commencing treatment, all of the animals are bled from the tail vein and serum levels of glucose and triglyceride are measured in duplicate. The animals are then sorted into different treatment groups with equal average triglyceride levels. The animals are treated with a single daily oral dose ranging from 3-30 mg/kg of the test compound suspended in sesame oil (dose volume of 3-5 ml/kg). Following one week of treatment the animals are bled from the tail vein and Serum glucose and triglycerides are measured in duplicate.
In this example, compound 1, which belongs to the novel subclass of RXR ligands is compared to a typical RXR ligand like compound 2 in the treatment of KKA^y mice.
For this study, adult diabetic KKA^y mice were housed in a fixed 12—12-hr artificial light-dark cycle, and maintained on a standard rodent diet. Prior to commencing treatment, all of the animals are bled from the tail vein and serum levels of glucose and triglyceride are measured in duplicate. The animals are then sorted into different treatment groups with equal average triglyceride levels. The animals are treated with a single daily oral dose of the test compound suspended in sesame oil (dose volume of 3 ml/kg).

db/db mice = conditions: at the concentrations used in the KKA^y study; cited from earlier work
[1] = system: Mouse 3T3-L1 preadipocytes; assay: 3T3-L1 adipocyte differentiation assay; format: cell-based; conditions: 0.1 μM compared to Compound 1 at equal concentration; pre-adipocytes to adipocytes
Experimental: Mouse 3T3-L1 cells were grown in 96-well tissue culture plates containing growing medium (DME containing 10% calf serum (CS) plus glutamine-pen-strep) at a density of 3,000 cells/well. Two days after reaching confluence, cells are treated with the different compounds in DM (Day 0). Compound 1 is included in all the experiments, and its ability to differentiate 3T3-L1 cells at 0.1 μM is taken as reference for 100% differentiation. After 7 days the lipid content of the cells was determined.
Prior to testing compounds in vivo, they can be run through the in vitro adipocyte differentiation assay based on the protocol of Zhang, et al. (1996) Negative Regulation of Peroxisome Proliferator—Activated Receptor—γGene Expression Contributes to the Antiadipogenic effects of Tumor Necrosis Factor—α. Mol. Endo. 10:1457-1456, incorporated herein by reference. In short, mouse 3T3-L1 preadipocytes are grown in culture medium containing 10% calf serum supplemented with antibiotics. Two days after reaching confluence, cells are treated with the selected compound at different concentrations dissolved in medium containing 10% fetal calf serum supplemented with antibiotics and kept at 10% CO2. The test compounds are replaced every 2-3 days. Differentiation is assessed after 7 days of treatment by the lipid content in the cells, using the Triglyceride (INFINITY) reagent (Sigma Chemical, St. Louis, Mo.).
The ability of a compound to induce preadipocytes to differentiate into adipocytes is an indicator of its antidiabetic activity. This allows for screening many compounds in a simple in vitro assay, thus avoiding the task of testing all compounds in vivo. The adipocyte differentiation assay is based on the protocol of Zhang, et al. (1996) Negative Regulation of Peroxisome Proliferator-Activated Receptor-γ Gene Expression Contributes to the Antiadipogenic effects of Tumor Necrosis Factor—α. Mol. Endo. 10:1457-1456, incorporated herein by reference at least for material related to adipocyte differentiation assays. Mouse 3T3-L1 preadipocytes are grown in culture medium containing 10% calf serum supplemented with antibiotics. Two days after reaching confluence, cells are treated with the selected compound at different concentrations dissolved in medium containing 10% fetal calf serum supplemented with antibiotics and kept at 10% CO2. The test compounds are replaced every 2-3 days. Differentiation is assessed after 7 days of treatment by the lipid content in the cells, using the Triglyceride (INFINITY) reagent (Sigma Chemical, St. Louis, Mo.) (see FIG. 15).

[2] = following two weeks of treatment

Compound: C=C(c1ccc(C(=O)O)cc1)c1cc2c(cc1C)C(C)(C)CCC2(C)C [Compound 2, reference compound]
- serum triglyceride levels compared to vehicle treated control animals (BALB/c mice; 50 and 100 mg/kg, daily oral, statistically significant at 100 mg/kg): increase
- serum triglyceride levels compared to vehicle treated controls (BALB/c mice; similar excess over its effective glucose lowering dose in db/db mice): statistically significant, dose dependent increase
- serum glucose levels compared to vehicle treated controls (KKA^y mice; 5 and 15 mg/kg, single daily oral dose in sesame oil, FIG. 10): no difference
- serum triglyceride levels compared to vehicle treated controls (KKA^y mice; 5 and 15 mg/kg, single daily oral dose, FIG. 11, statistically significant at 5 mg/kg): increase
- Efficacious in KKAy Mice (KKA^y mice; efficacious = lowers glucose without increasing triglycerides): No
- glucose levels compared to vehicle treated controls (KKA^y mice; [2]): failed to decrease
- triglyceride levels compared to vehicle treated controls (KKA^y mice; [2]): significantly increased
- glucose levels in type 2 diabetic db/db mice (db/db mice): lower
- triglyceride levels in type 2 diabetic db/db mice (db/db mice): lower
- Differentiation Activity [1]: >100%
